Measured values from US6737383B1, “Herbicidal oxadiazolidines” (priority 1999, dated 2004).

Experiments:
bedstraw = assay: Test B pre/postemergence bedstraw; assay type: in vivo, Galium aparine; conditions: for Bedstraw plant response rating (0 to 10 scale): 0 is no effect
Procedure, shortened: (§1)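 Test chemicals in a non-phytotoxic solvent mixture with surfactant were sprayed preemergence onto planted seeds and postemergence onto plants 2 to 18 cm tall (1- to 4-leaf stage). After twelve to sixteen days in a greenhouse, injury was visually rated against untreated controls from 0 (no effect) to 10 (complete control).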

blackgrass = assay: Test B pre/postemergence blackgrass; assay type: in vivo, Alopecurus myosuroides; conditions: for Blackgrass plant response rating (0 to 10 scale): 0 is no effect
Procedure, shortened: as §1

velvetleaf = assay: Test B pre/postemergence velvetleaf; assay type: in vivo, Abutilon theophrasti; conditions: for Velvetleaf plant response rating (0 to 10 scale): 0 is no effect
Procedure, shortened: as §1

wheat = assay: Test B pre/postemergence wheat; assay type: in vivo, Triticum aestivum; conditions: for Wheat plant response rating (0 to 10 scale): 0 is no effect
Procedure, shortened: as §1

[1] = Postemergence, Rate 125 g/ha, scale of 0 to 10 where 0 is no effect and 10 is complete control
[2] = Preemergence, Rate 62 g/ha, scale 0 to 10 (0 no effect, 10 complete control)
[3] = Preemergence, Rate 125 g/ha, 10 is complete control
[4] = Preemergence, Rate 250 g/ha, scale 0 to 10, 0 is no effect, 10 is complete control
[5] = Preemergence, Rate 500 g/ha, scale 0 to 10 (0 no effect, 10 complete control)
[6] = Rate 62 g/ha, Postemergence, scale of 0 to 10 where 0 is no effect and 10 is complete control
[7] = Rate 250 g/ha, Postemergence, scale 0 to 10, 0 is no effect, 10 is complete control
[8] = Rate 500 g/ha, Postemergence, scale 0 to 10, 0 no effect, 10 complete control
[9] = Rate 500 g/ha, Postemergence, scale 0 to 10
[10] = Postemergence, Rate 250 g/ha, scale 0 to 10
[11] = Postemergence, Rate 500 g/ha, scale of 0 to 10 where 0 is no effect and 10 is complete control
[12] = Rate 62 g/ha, Postemergence, scale 0 to 10 (0 no effect, 10 complete control)
[13] = Rate 125 g/ha, Postemergence, scale 0 to 10, 0 is no effect, 10 is complete control
[14] = Preemergence, Rate 125 g/ha, scale of 0 to 10 where 0 is no effect and 10 is complete control
[15] = Preemergence, Rate 500 g/ha, scale 0 to 10, 0 is no effect, 10 is complete control
[16] = Preemergence, Rate 62 g/ha, scale of 0 to 10 where 0 is no effect and 10 is complete control
[17] = Postemergence, Rate 1000 g/ha, scale 0 to 10 (0 no effect, 10 complete control)
[18] = Preemergence, Rate 250 g/ha, scale of 0 to 10 where 0 is no effect and 10 is complete control
[19] = Preemergence, Rate 500 g/ha, scale of 0 to 10 where 0 is no effect and 10 is complete control
[20] = Rate 125 g/ha, Postemergence, scale 0 to 10
[21] = Rate 125 g/ha, Preemergence, scale of 0 to 10 where 0 is no effect and 10 is complete control
[22] = Rate 1000 g/ha, Preemergence, scale 0 to 10 (0 no effect, 10 complete control)
[23] = Postemergence, Rate 62 g/ha, scale 0 to 10, 0 is no effect, 10 is complete control
[24] = Postemergence, Rate 250 g/ha, scale 0 to 10, 0 no effect, 10 complete control
[25] = Preemergence, Rate 31 g/ha, visual rating, scale 0 to 10 (0 no effect, 10 complete control)
[26] = Preemergence, Rate 62 g/ha, scale 0 to 10, 0 is no effect, 10 is complete control
[27] = Preemergence, Rate 125 g/ha, scale 0 to 10 (0 no effect, 10 complete control)
[28] = Rate 31 g/ha, Postemergence, scale 0 to 10
[29] = Rate 125 g/ha, Postemergence, scale 0 to 10, 0 no effect, 10 complete control

Compound: CC(C)N(C(=O)n1oc(=O)n(Cc2ccccc2Cl)c1=O)C1=CCCCC1 [Compound 145]
- Bedstraw plant response rating (bedstraw; [1]): 2
- Bedstraw plant response rating (bedstraw; [2]): 0
- Bedstraw plant response rating (0 to 10 scale) (bedstraw; [3]): 0
- Bedstraw plant response rating (bedstraw; [4]): 0
- Bedstraw plant response rating (bedstraw; [5]): 4
- Bedstraw plant response rating (bedstraw; [6]): 0
- Plant response rating, Bedstraw (bedstraw; [7]): 3
- Bedstraw plant response rating (bedstraw; [8]): 5
- Blackgrass plant response rating (blackgrass; [1]): 1
- Blackgrass plant response rating (blackgrass; [2]): 0
- Blackgrass plant response rating (0 to 10 scale) (blackgrass; [3]): 1
- Blackgrass plant response rating (blackgrass; [4]): 4
- Blackgrass plant response rating (blackgrass; [5]): 7
- Blackgrass plant response rating (blackgrass; [6]): 0
- Plant response rating, Blackgrass (blackgrass; [7]): 5
- Blackgrass plant response rating (blackgrass; [9]): 6
- Velvetleaf plant response rating (velvetleaf; [1]): 0
- Velvetleaf plant response rating (velvetleaf; [2]): 0
- Velvetleaf plant response rating (0 to 10 scale) (velvetleaf; [3]): 0
- Velvetleaf plant response rating (velvetleaf; [4]): 0
- Velvetleaf plant response rating (velvetleaf; [5]): 5
- Velvetleaf plant response rating (velvetleaf; [6]): 0
- Plant response rating, Velvetleaf (velvetleaf; [7]): 0
- Velvetleaf plant response rating (velvetleaf; [9]): 2
- Wheat plant response rating (wheat; [1]): 0
- Wheat plant response rating (wheat; [2]): 0
- Wheat plant response rating (0 to 10 scale) (wheat; [3]): 0
- Wheat plant response rating (wheat; [4]): 0
- Wheat plant response rating (wheat; [5]): 0
- Wheat plant response rating (wheat; [6]): 0
- Plant response rating, Wheat (wheat; [7]): 0
- Wheat plant response rating (wheat; [9]): 0

Compound: CC(C)N(C(=O)n1oc(=O)n(C(C)C#N)c1=O)c1ccccc1 (stereo not drawn) [Compound 435]
- Bedstraw plant response rating (bedstraw; [10]): 0
- Bedstraw plant response rating (bedstraw; [11]): 0
- Bedstraw plant response rating (bedstraw; [12]): 0
- Bedstraw plant response rating (bedstraw; [13]): 0
- Blackgrass plant response rating (blackgrass; [10]): 6
- Blackgrass plant response rating (blackgrass; [11]): 8
- Plant response rating, Blackgrass (blackgrass; [2]): 0
- Plant response rating, Blackgrass (blackgrass; [14]): 0
- Blackgrass plant response rating (blackgrass; [4]): 0
- Blackgrass plant response rating (blackgrass; [15]): 2
- Blackgrass plant response rating (blackgrass; [12]): 0
- Blackgrass plant response rating (blackgrass; [13]): 0
- Velvetleaf plant response rating (velvetleaf; [10]): 0
- Velvetleaf plant response rating (velvetleaf; [11]): 0
- Plant response rating, Velvetleaf (velvetleaf; [2]): 0
- Plant response rating, Velvetleaf (velvetleaf; [14]): 0
- Velvetleaf plant response rating (velvetleaf; [4]): 1
- Velvetleaf plant response rating (velvetleaf; [15]): 2
- Velvetleaf plant response rating (velvetleaf; [12]): 0
- Velvetleaf plant response rating (velvetleaf; [13]): 0
- Wheat plant response rating (wheat; [10]): 0
- Wheat plant response rating (wheat; [11]): 0
- Plant response rating, Wheat (wheat; [2]): 0
- Plant response rating, Wheat (wheat; [14]): 0
- Wheat plant response rating (wheat; [4]): 0
- Wheat plant response rating (wheat; [15]): 0
- Wheat plant response rating (wheat; [12]): 0
- Wheat plant response rating (wheat; [13]): 0

Compound: CC(C)N(C(=O)n1oc(=O)n(COC(=O)C(C)(C)C)c1=O)c1ccc(F)cc1 [Compound 462]
- Plant response rating, Bedstraw (bedstraw; [16]): 0
- Plant response rating, Bedstraw (bedstraw; [14]): 0
- Bedstraw plant response rating (bedstraw; [4]): 0
- Bedstraw plant response rating (bedstraw; [15]): 0
- Bedstraw plant response rating (bedstraw; [12]): 0
- Bedstraw plant response rating (bedstraw; [13]): 0
- Blackgrass plant response rating (blackgrass; [10]): 0
- Blackgrass plant response rating (blackgrass; [11]): 0
- Plant response rating, Blackgrass (blackgrass; [16]): 0
- Plant response rating, Blackgrass (blackgrass; [14]): 0
- Blackgrass plant response rating (blackgrass; [4]): 0
- Blackgrass plant response rating (blackgrass; [15]): 0
- Blackgrass plant response rating (blackgrass; [12]): 0
- Blackgrass plant response rating (blackgrass; [13]): 0
- Velvetleaf plant response rating (velvetleaf; [10]): 0
- Plant response rating, Velvetleaf (velvetleaf; [16]): 0
- Plant response rating, Velvetleaf (velvetleaf; [14]): 0
- Velvetleaf plant response rating (velvetleaf; [4]): 0
- Velvetleaf plant response rating (velvetleaf; [15]): 0
- Velvetleaf plant response rating (velvetleaf; [12]): 0
- Velvetleaf plant response rating (velvetleaf; [13]): 0
- Wheat plant response rating (wheat; [10]): 0
- Plant response rating, Wheat (wheat; [16]): 0
- Plant response rating, Wheat (wheat; [14]): 0
- Wheat plant response rating (wheat; [4]): 0
- Wheat plant response rating (wheat; [15]): 0
- Wheat plant response rating (wheat; [12]): 0
- Wheat plant response rating (wheat; [13]): 0

Compound: CCOC(=O)C(C)N(C(=O)n1oc(=O)n(-c2ccccc2C)c1=O)c1ccc(F)cc1 (stereo not drawn) [Compound 247]
- Bedstraw plant response rating (bedstraw; [17]): 0
- Bedstraw plant response rating (bedstraw; [18]): 0
- Plant response rating, Bedstraw (bedstraw; [19]): 0
- Bedstraw plant response rating (bedstraw; [20]): 0
- Bedstraw plant response rating (bedstraw; [21]): 0
- Plant response rating (0 to 10; 0 is no effect, 10 is complete control), Bedstraw (bedstraw; Rate 250 g/ha, Postemergence): 0
- Bedstraw plant response rating (bedstraw; [8]): 0
- Plant response rating, Bedstraw (bedstraw; [22]): 0
- Blackgrass plant response rating (blackgrass; [17]): 0
- Blackgrass plant response rating (blackgrass; [18]): 0
- Plant response rating, Blackgrass (blackgrass; [19]): 0
- Blackgrass plant response rating (blackgrass; [20]): 0
- Blackgrass plant response rating (blackgrass; [21]): 0
- Plant response rating (0 to 10; 0 is no effect, 10 is complete control), Blackgrass (blackgrass; Rate 250 g/ha, Postemergence): 0
- Blackgrass plant response rating (blackgrass; [8]): 0
- Plant response rating, Blackgrass (blackgrass; [22]): 0
- Velvetleaf plant response rating (velvetleaf; [17]): 0
- Velvetleaf plant response rating (velvetleaf; [18]): 0
- Plant response rating, Velvetleaf (velvetleaf; [19]): 0
- Velvetleaf plant response rating (velvetleaf; [21]): 0
- Velvetleaf plant response rating (velvetleaf; [8]): 0
- Plant response rating, Velvetleaf (velvetleaf; [22]): 0
- Wheat plant response rating (wheat; [17]): 0
- Wheat plant response rating (wheat; [18]): 0
- Plant response rating, Wheat (wheat; [19]): 0
- Wheat plant response rating (wheat; [21]): 0
- Wheat plant response rating (wheat; [8]): 0
- Plant response rating, Wheat (wheat; [22]): 0

Compound: CC(C)N(C(=O)n1oc(=O)n(-c2ccc(F)cc2F)c1=O)c1ccc(F)cc1F [Compound 22]
- Bedstraw plant response rating (bedstraw; [23]): 1
- Bedstraw plant response rating (bedstraw; [24]): 4
- Bedstraw plant response rating (bedstraw; [25]): 0
- Plant response rating, Bedstraw (bedstraw; [26]): 0
- Plant response rating, Bedstraw (bedstraw; [27]): 0
- Plant response rating, Bedstraw (bedstraw; [18]): 4
- Bedstraw plant response rating (bedstraw; [28]): 0
- Bedstraw plant response rating (bedstraw; [29]): 2
- Blackgrass plant response rating (blackgrass; [23]): 1
- Blackgrass plant response rating (blackgrass; [24]): 3
- Blackgrass plant response rating (blackgrass; [25]): 0
- Plant response rating, Blackgrass (blackgrass; [26]): 0
- Plant response rating, Blackgrass (blackgrass; [27]): 4
- Plant response rating, Blackgrass (blackgrass; [18]): 6
- Blackgrass plant response rating (blackgrass; [28]): 0
- Blackgrass plant response rating (blackgrass; [29]): 1
- Velvetleaf plant response rating (velvetleaf; [23]): 0
- Velvetleaf plant response rating (velvetleaf; [24]): 0
- Velvetleaf plant response rating (velvetleaf; [25]): 0
- Plant response rating, Velvetleaf (velvetleaf; [26]): 0
- Plant response rating, Velvetleaf (velvetleaf; [27]): 0
- Plant response rating, Velvetleaf (velvetleaf; [18]): 1
- Velvetleaf plant response rating (velvetleaf; [29]): 0
- Wheat plant response rating (wheat; [23]): 0
- Wheat plant response rating (wheat; [24]): 0
- Wheat plant response rating (wheat; [25]): 0
- Plant response rating, Wheat (wheat; [26]): 0
- Plant response rating, Wheat (wheat; [27]): 0
- Plant response rating, Wheat (wheat; [18]): 0
- Wheat plant response rating (wheat; [29]): 0

Compound: CCN(Cc1ccccc1)C(=O)n1oc(=O)n(C(C)C)c1=O [Compound 166]
- Bedstraw plant response rating (bedstraw; [1]): 0
- Bedstraw plant response rating (bedstraw; [16]): 0
- Bedstraw plant response rating (0 to 10 scale) (bedstraw; [3]): 0
- Bedstraw plant response rating (bedstraw; [4]): 0
- Bedstraw plant response rating (bedstraw; [5]): 0
- Bedstraw plant response rating (bedstraw; [6]): 0
- Plant response rating, Bedstraw (bedstraw; [7]): 1
- Bedstraw plant response rating (bedstraw; [9]): 5
- Blackgrass plant response rating (blackgrass; [1]): 4
- Blackgrass plant response rating (blackgrass; [16]): 0
- Blackgrass plant response rating (0 to 10 scale) (blackgrass; [3]): 0
- Blackgrass plant response rating (blackgrass; [4]): 4
- Blackgrass plant response rating (blackgrass; [5]): 5
- Blackgrass plant response rating (blackgrass; [6]): 0
- Plant response rating, Blackgrass (blackgrass; [7]): 7
- Blackgrass plant response rating (blackgrass; [9]): 8
- Velvetleaf plant response rating (velvetleaf; [16]): 0
- Velvetleaf plant response rating (0 to 10 scale) (velvetleaf; [3]): 0
- Velvetleaf plant response rating (velvetleaf; [4]): 5
- Velvetleaf plant response rating (velvetleaf; [5]): 6
- Plant response rating, Velvetleaf (velvetleaf; [7]): 0
- Velvetleaf plant response rating (velvetleaf; [9]): 0
- Wheat plant response rating (wheat; [16]): 0
- Wheat plant response rating (0 to 10 scale) (wheat; [3]): 0
- Wheat plant response rating (wheat; [4]): 0
- Wheat plant response rating (wheat; [5]): 0
- Plant response rating, Wheat (wheat; [7]): 0
- Wheat plant response rating (wheat; [9]): 3
